Laboratory results published in US7294635B2 (Portola Pharmaceuticals, Inc., priority 2003, dated 2007).

Each molecule was assayed on ADP-induced human platelet aggregation (assay: Inhibition of ADP-mediated platelet aggregation in vitro using platelet-rich plasma (PRP assay)). Details: 5 min; human platelet-rich plasma, 2 μM ADP, 96-well microtiter, OD 650 nm at 5 min; read-out: Activity in the PRP assay.
Assay type: cell-based
Procedure: This Example Provides an Assay for the Inhibition of ADP-Mediated Platelet Aggregation In Vitro Using Platelet-Rich Plasma (PRP)
Platelet-rich plasma (PRP) is prepared by centrifugation at 160×g for 20 minutes at room temperature. PRP is collected, and the platelet concentration is determined using a Coulter counter or hemocytometer (platelet concentration should be 2-4×10^8 platelets per mL).
Inhibition of ADP-dependent aggregation is preferably determined in 96-well flat-bottom microtiter plates using a microtiter plate shaker and plate reader similar to the procedure described by Frantantoni et al., Am. J. Clin. Pathol. […] All steps are performed at room temperature. The total reaction volume of 0.2 mL/well includes: PRP (˜6×10^7 total platelets in the presence of plasma), serial dilutions of test compounds (buffer for control wells) in 0.6% DMSO. After about 5 minutes preincubation at room temperature, ADP is added to a final concentration of 2 μM which induces submaximal aggregation. Buffer is added instead of ADP to one set of control wells (ADP-control). The OD of the samples is then determined at 650 nm using a microtiter plate reader (Softmax, Molecular Devices, Menlo Park, Calif.) resulting in the 0 minute reading. The plates are then agitated for 5 min on a microtiter plate shaker and the 5 minute reading is obtained in the plate reader. Aggregation is calculated from the decrease of OD at 650 nm at t=5 minutes compared to t=0 minutes and is expressed as % of the decrease in the ADP control samples after correcting for changes in the unaggregated control samples.
In the case of `CNc1cc2ccn(-c3ccc(NC(=O)NS(=O)(=O)c4ccc(Cl)s4)c(C(=O)OC)c3)c(=O)c2cc1F` [Example 98, methyl 2-[({[(5-chlorothien-2-yl)sulfonyl]amino}carbonyl)amino]-5-[7-fluoro-6-(methylamino)-1-oxoisoquinolin-2(1H)-yl]benzoate], the IC50 is reported as < 10 µM. In the case of `CNc1cc2ccn(-c3ncc(NC(=O)NS(=O)(=O)c4ccc(Cl)s4)cc3C)c(=O)c2cc1F` [Example 57, 5-chloro-N-[({6-[7-fluoro-6-(methylamino)-1-oxoisoquinolin-2(1H)-yl]-5-methylpyridin-3-yl}amino)carbonyl]thiophene-2-sulfonamide], the IC50 is reported as > 30 µM. Molecule `CNc1cc2ccn(-c3ccc(NC(=O)NS(=O)(=O)c4ccc(C#N)s4)cc3)c(=O)c2cc1F` [Example 33] has an IC50 of 10 to 30 µM. For `CCc1cc(-n2ccc3cc(NC)c(F)cc3c2=O)ccc1NC(=O)NS(=O)(=O)c1ccc(Cl)s1` [Example 81, 5-chloro-N-[({2-ethyl-4-[7-fluoro-6-(methylamino)-1-oxoisoquinolin-2(1H)-yl]phenyl}amino)carbonyl]thiophene-2-sulfonamide], the IC50 was < 10 µM. In the case of `CNc1cc2ccn(-c3ccc(NC(=O)NS(=O)(=O)c4ccc(Cl)s4)cc3Cl)c(=O)c2cc1F` [Example 50, 5-chloro-N-[({3-chloro-4-[7-fluoro-6-(methylamino)-1-oxoisoquinolin-2(1H)-yl]phenyl}amino)carbonyl]thiophene-2-sulfonamide], the IC50 is reported as < 10 µM. With `CNc1cc2ccn(-c3ccc(NC(=O)NS(=O)(=O)c4ccc(Cl)s4)c(OCc4ccccc4)c3)c(=O)c2cc1F` [Example 79, N-[({2-(benzyloxy)-4-[7-fluoro-6-(methylamino)-1-oxoisoquinolin-2(1H)-yl]phenyl}amino)carbonyl]-5-chlorothiophene-2-sulfonamide] the IC50 was > 30 µM. For `CNc1c(F)cc2c(=O)n(-c3ccc(NC(=O)NS(=O)(=O)c4ccc(Cl)s4)cc3)ccc2c1C` [Example 120, 5-chloro-N-[({4-[7-fluoro-5-methyl-6-(methylamino)-1-oxoisoquinolin-2(1H)-yl]phenyl}amino)carbonyl]thiophene-2-sulfonamide], the IC50 was < 10 µM. For `CNc1cc2ccn(-c3ccc(NC(=O)NS(=O)(=O)c4cccs4)cc3)c(=O)c2cc1F` [Example 27, N-[({4-[7-fluoro-6-(methylamino)-1-oxoisoquinolin-2(1H)-yl]phenyl}amino)carbonyl]thiophene-2-sulfonamide], the IC50 was < 10 µM. For `CNc1cc2ccn(-c3ccc(NC(=O)NS(=O)(=O)c4ccc(Cl)s4)cc3C(C)=O)c(=O)c2cc1F` [Example 70, N-[({3-acetyl-4-[7-fluoro-6-(methylamino)-1-oxoisoquinolin-2(1H)-yl]phenyl}amino)carbonyl]-5-chlorothiophene-2-sulfonamide], the IC50 was 10 to 30 µM. With `CNc1cc2ccn(-c3ccc(NC(=O)NS(=O)(=O)c4ccc(Cl)s4)cc3Br)c(=O)c2cc1F` [Example 51, N-[({3-bromo-4-[7-fluoro-6-(methylamino)-1-oxoisoquinolin-2(1H)-yl]phenyl}amino)carbonyl]-5-chlorothiophene-2-sulfonamide] the IC50 was < 10 µM. For `CCOc1cc(-n2ccc3cc(NC)c(F)cc3c2=O)ccc1NC(=O)NS(=O)(=O)c1ccc(Cl)s1` [Example 90, 5-chloro-N-[({2-ethoxy-4-[7-fluoro-6-(methylamino)-1-oxoisoquinolin-2(1H)-yl]phenyl}amino)carbonyl]thiophene-2-sulfonamide], the IC50 was < 10 µM. For `CNc1cc2ccn(-c3ccc(NC(=O)NS(=O)(=O)c4ccc(Cl)s4)cc3C(F)(F)F)c(=O)c2cc1F` [Example 95, 5-chloro-N-({[4-[7-fluoro-6-(methylamino)-1-oxoisoquinolin-2(1H)-yl]-3-(trifluoromethyl)phenyl]amino}carbonyl)thiophene-2-sulfonamide], the IC50 was > 30 µM. In the case of `CNc1cc2ccn(-c3ccc(NC(=O)NS(=O)(=O)c4ccc(Cl)s4)c(C4CC4)c3)c(=O)c2cc1F` [Example 94, 5-chloro-N-[({2-cyclopropyl-4-[7-fluoro-6-(methylamino)-1-oxoisoquinolin-2(1H)-yl]phenyl}amino)carbonyl]thiophene-2-sulfonamide], the IC50 is reported as < 10 µM. Molecule `CNc1c(F)cc2c(=O)n(-c3ccc(NC(=O)NS(=O)(=O)c4ccc(Cl)s4)cc3)ccc2c1C#N` [Example 118, 5-chloro-N-[({4-[5-cyano-7-fluoro-6-(methylamino)-1-oxoisoquinolin-2(1H)-yl]phenyl}amino)carbonyl]thiophene-2-sulfonamide] has an IC50 of 10 to 30 µM. For `CNc1cc2ccn(-c3ccc(NC(=O)NS(=O)(=O)c4ccc(C(F)F)s4)cc3)c(=O)c2cc1F` [Example 32], the IC50 was < 10 µM. For `O=C(Nc1ccc(-n2ccc3cc(NCc4ccc(Cl)cc4)c(F)cc3c2=O)cc1)NS(=O)(=O)c1ccc(Cl)s1` [Example 23, 5-chloro-N-[({4-[6-[(4-chlorobenzyl)amino]-7-fluoro-1-oxoisoquinolin-2(1H)-yl]phenyl}amino)carbonyl]thiophene-2-sulfonamide], the IC50 was < 10 µM. For `CCCCNc1cc(-n2ccc3cc(NC)c(F)cc3c2=O)ccc1NC(=O)NS(=O)(=O)c1ccc(Cl)s1` [Example 80, N-[({2-(butylamino)-4-[7-fluoro-6-(methylamino)-1-oxoisoquinolin-2(1H)-yl]phenyl}amino)carbonyl]-5-chlorothiophene-2-sulfonamide], the IC50 was > 30 µM. In the case of `CNc1cc2ccn(-c3ccc(NC(=O)NS(=O)(=O)c4cc(Cl)cs4)cc3)c(=O)c2cc1F` [Example 37], the IC50 is reported as < 10 µM. With `CNc1cc2ccn(-c3ccc(NC(=O)NS(=O)(=O)c4cc(C)cs4)cc3)c(=O)c2cc1F` [Example 38] the IC50 was < 10 µM. For `O=C(Nc1ccc(-n2ccc3cc(NCCF)c(F)cc3c2=O)cc1)NS(=O)(=O)c1ccc(Cl)s1` [Example 20, 5-chloro-N-[({4-[7-fluoro-6-[(2-fluoroethyl)amino]-1-oxoisoquinolin-2(1H)-yl]phenyl}amino)carbonyl]thiophene-2-sulfonamide], the IC50 was < 10 µM. In the case of `C#Cc1ccc(S(=O)(=O)NC(=O)Nc2ccc(-n3ccc4cc(NC)c(F)cc4c3=O)cc2)s1` [Example 35], the IC50 is reported as < 10 µM. With `CNc1cc2ccn(-c3cc(C)c(NC(=O)NS(=O)(=O)c4ccc(Cl)s4)c(C(C)C)c3)c(=O)c2cc1F` [Example 100, 5-chloro-N-[({4-[7-fluoro-6-(methylamino)-1-oxoisoquinolin-2(1H)-yl]-2-isopropyl-6-methylphenyl}amino)carbonyl]thiophene-2-sulfonamide] the IC50 was 10 to 30 µM. With `CNc1cc2ccn(-c3ccc(NC(=O)NS(=O)(=O)c4ccc(Cl)s4)cc3F)c(=O)c2cc1F` [Example 49, 5-chloro-N-[({3-fluoro-4-[7-fluoro-6-(methylamino)-1-oxoisoquinolin-2(1H)-yl]phenyl}amino)carbonyl]thiophene-2-sulfonamide] the IC50 was < 10 µM. With `CNc1cc2ccn(-c3ccc(NC(=O)NS(=O)(=O)c4ccc(Cl)s4)c(OCC(F)(F)F)c3)c(=O)c2cc1F` [Example 89, 5-chloro-N-({[4-[7-fluoro-6-(methylamino)-1-oxoisoquinolin-2(1H)-yl]-2-(2,2,2-trifluoroethoxy)phenyl]amino}carbonyl)thiophene-2-sulfonamide] the IC50 was < 10 µM. `CNc1cc2ccn(-c3ccc(NC(=O)NS(=O)(=O)c4ccc(Cl)s4)c(C(=O)O)c3)c(=O)c2cc1F` [Example 99, 2-[({[(5-chlorothien-2-yl)sulfonyl]amino}carbonyl)amino]-5-[7-fluoro-6-(methylamino)-1-oxoisoquinolin-2(1H)-yl]benzoic acid] was tested, and the IC50 was < 10 µM.
